Source: patent publication US11254651B2, “Histone methyltransferase inhibitors” (GLOBAL BLOOD THERAPEUTICS, INC., priority 2016, dated 2022)
pIC50: −log10 of the molar value. Counter-ions that a name gives are not always drawn.

Molecular target: T1, G9a (Homo sapiens, UniProt Q96KQ7)
T1 sequence (Q96KQ7 1-1210): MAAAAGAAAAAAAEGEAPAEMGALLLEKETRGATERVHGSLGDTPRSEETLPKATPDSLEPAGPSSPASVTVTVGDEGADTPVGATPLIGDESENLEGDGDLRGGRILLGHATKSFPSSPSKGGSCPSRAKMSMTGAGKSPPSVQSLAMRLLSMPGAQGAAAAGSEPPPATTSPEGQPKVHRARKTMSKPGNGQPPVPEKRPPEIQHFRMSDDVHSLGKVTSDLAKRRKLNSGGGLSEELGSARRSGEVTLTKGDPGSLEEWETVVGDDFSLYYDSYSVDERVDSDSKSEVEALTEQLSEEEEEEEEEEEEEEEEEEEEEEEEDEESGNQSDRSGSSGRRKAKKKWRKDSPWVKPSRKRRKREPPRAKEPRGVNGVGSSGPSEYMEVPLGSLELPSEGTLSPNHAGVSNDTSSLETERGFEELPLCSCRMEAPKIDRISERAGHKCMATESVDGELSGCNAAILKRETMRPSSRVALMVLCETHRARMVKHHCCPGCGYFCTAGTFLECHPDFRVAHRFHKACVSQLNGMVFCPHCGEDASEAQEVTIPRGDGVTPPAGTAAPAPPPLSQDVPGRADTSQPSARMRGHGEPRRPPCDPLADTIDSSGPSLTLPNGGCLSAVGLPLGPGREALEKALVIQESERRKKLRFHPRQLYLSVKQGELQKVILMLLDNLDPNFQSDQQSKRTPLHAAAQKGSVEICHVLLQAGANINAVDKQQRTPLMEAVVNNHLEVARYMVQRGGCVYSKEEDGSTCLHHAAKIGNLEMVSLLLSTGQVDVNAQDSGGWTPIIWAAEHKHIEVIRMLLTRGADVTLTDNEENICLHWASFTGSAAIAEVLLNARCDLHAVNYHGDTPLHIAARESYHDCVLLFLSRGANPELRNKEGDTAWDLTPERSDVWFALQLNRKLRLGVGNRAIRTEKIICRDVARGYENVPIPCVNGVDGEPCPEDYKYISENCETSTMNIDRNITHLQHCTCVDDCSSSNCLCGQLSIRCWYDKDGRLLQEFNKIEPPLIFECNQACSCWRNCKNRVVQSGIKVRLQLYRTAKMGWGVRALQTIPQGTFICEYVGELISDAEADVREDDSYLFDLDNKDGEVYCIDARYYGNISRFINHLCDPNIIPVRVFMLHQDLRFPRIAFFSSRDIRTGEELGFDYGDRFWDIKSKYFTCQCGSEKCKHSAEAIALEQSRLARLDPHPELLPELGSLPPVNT
Assay: G9a AlphaLISA enzymatic activity assay
Type: biochemical
Conditions: 0.15 nM G9a, 15 uM S-adenosyl-methionine, 100 nM biotinylated histone 3 peptide (1-21), 1 hour room temperature
Text: The G9a AlphaLISA assay was used to detect the methyl modifications of a biotinylated histone H3 peptide by the compounds. These modifications are done by the histone methyl transferase activity of the G9a enzyme. The assay consists of reading a chemiluminescent signal at 615 nm; this signal is generated by a laser excitation at 680 nm that transfers a reactive singlet oxygen between the donor beads and acceptor beads. Donor beads are streptavidin conjugated and bind to the biotin on the peptide. Acceptor beads are conjugated with an antibody that recognizes the specific G9a methyl mark on the peptide. If there is a methyl mark on the peptide, the acceptor beads will bind to the peptide. Upon binding, the acceptor beads will be in close proximity (<200 nm) of the donor beads and when the donor beads are excited, the transfer of the oxygen can occur and a strong signal will be generated. If there is no methyl mark, the interaction between beads will not occur and signal will be at background levels.
For the assay, the following buffer was used to set up reactions: 50 mM Tris-HCl pH9, 50 mM NaCl, 0.01% Tween-20 and 1 mM DTT (added fresh prior to starting the reactions). The assay is set up by adding a final concentration of 0.15 nM G9a, 15 uM S-adenosyl-methionine and, 100 nM biotinylated histone 3 peptide (1-21). The reaction is incubated at room temperature for 1 hour, and subsequently quenched by the addition of the acceptor beads (anti-H3k9me2 AlphaLISA acceptor beads, PerkinElmer #AL117) at a final concentration of 20 ug/mL. The acceptor beads are incubated for 1 hour. After 1 hour, the donor beads are added at a final concentration of 20 ug/mL (Alpha Streptavidin donor beads, PerkinElmer #6760002). Donor beads are incubated for 0.5 hours. Both donor and acceptor beads are resuspended in AlphaLISA 5X Epigenetics Buffer 1 Kit (PerkinElmer #AL008) prior to addition to the reaction. All manipulations and incubations with the donor and acceptor beads are done in subdued light. Signal is detected in an EnVision plate reader in Alpha mode (see ACS Med Chem Lett. 2014 Jan. 2; 5(2):205-9. doi: 10.1021/m1400496h. eCollection 2014. Discovery and development of potent and selective inhibitors of histone methyltransferase g9a.)
Percent inhibition was calculated for each compound dilution and the concentration that produced 50% inhibition was calculated. This value is presented as the IC50.

Compound	pIC50
COc1cc2c(NCc3ccccc3)c3c(nc2cc1OCCCN1CCCC1)CCC3 [Entry 46, N-benzyl-7-methoxy-6-[3-(pyrrolidin-1-yl)propoxy]-1H,2H,3H-cyclopenta[b]quinolin-9-amine formate]	7.44
CNc1c2c(nc3cc(OCCCN4CCC(F)C4)c(OC)cc13)CCC2 (centres unmarked) [Entry 29, 6-[3-(3-fluoropyrrolidin-1-yl)propoxy]-7-methoxy-N-methyl-1H,2H,3H-cyclopenta[b]quinolin-9-amine]	6.60
COc1cc2c(NC3CCC(=O)N(C)C3)c3c(nc2cc1OCCCN1CCCC1)CCC3 (centres unmarked) [Entry 58, 5-({7-methoxy-6-[3-(pyrrolidin-1-yl)propoxy]-1H,2H,3H-cyclopenta[b]quinolin-9-yl}amino)-1-methylpiperidin-2-one trifluoroacetate]	7.33
COc1cc2cc3c(nc2cc1OCCCN1CCCC1)CCCC3 [Entry 17, 7-methoxy-6-[3-(pyrrolidin-1-yl)propoxy]-1,2,3,4-tetrahydroacridine formate]	6.29
COc1cc2c(NC(C)C)c3cnccc3nc2cc1OCCCN1CCCC1 [Entry 121, 8-methoxy-N-(propan-2-yl)-7-[3-(pyrrolidin-1-yl)propoxy]benzo[b]1,6-naphthyridin-10-amine formate]	7.19
COc1cc2c(NCC3CC3)c3c(nc2cc1OCC1CCN(C)C1)CCC3 (centres unmarked) [Entry 52, N-(cyclopropylmethyl)-7-methoxy-6-[(1-methylpyrrolidin-3-yl)methoxy]-1H,2H,3H-cyclopenta[b]quinolin-9-amine formate]	7.19
COc1cc2c(NC3CCOCC3)c3cc(C)ccc3nc2cc1OCCCN1CCCC1 [Entry 114, 2-methoxy-7-methyl-N-(oxan-4-yl)-3-[3-(pyrrolidin-1-yl)propoxy]acridin-9-amine formate]	7.27
CNc1c2ccccc2nc2cc(OCCCN3CCCC3)ccc12 [Entry 10, N-methyl-3-[3-(pyrrolidin-1-yl)propoxy]acridin-9-amine formate]	7.25
COc1ccc2nc3cc(OCCCN4CCCC4)c(OC)cc3c(NC3CCOCC3)c2c1 [Entry 115, 2,7-dimethoxy-N-(oxan-4-yl)-3-[3-(pyrrolidin-1-yl)propoxy]acridin-9-amine trifluoroacetate]	6.67
2-ethoxy-N-methyl-3-[3-(pyrrolidin-1-yl)propoxy]acridin-9-amine formate and 3-ethoxy-N-methyl-2-[3-(pyrrolidin-1-yl)propoxy]acridin-9-amine formate (1:1) [Entry 118]	7.12
COc1cc2c(NCC(=O)O)c3ccccc3nc2cc1OCCCN1CCCC1 [Entry 104, 2-({2-methoxy-3-[3-(pyrrolidin-1-yl)propoxy]acridin-9-yl}amino)acetic acid formate]	6.87
COc1cc2c(NC3CC4CCC(C3)O4)c3ccccc3nc2cc1OCCCN1CCCC1 (centres unmarked) [Entry 80, 2-methoxy-N-{8-oxabicyclo[3.2.1]octan-3-yl}-3-[3-(pyrrolidin-1-yl)propoxy]acridin-9-amine formate]	7.19
COc1cc2c(NC(C)C)c3cccc(F)c3nc2cc1OCCCN1CCCC1 [Entry 120, 5-fluoro-2-methoxy-N-(propan-2-yl)-3-[3-(pyrrolidin-1-yl)propoxy]acridin-9-amine formate]	7.21
CCN(CC)CCCOc1cc2nc3ccccc3c(NC)c2cc1OC [Entry 14, 3-[3-(diethylamino)propoxy]-2-methoxy-N-methylacridin-9-amine trifluoroacetate]	7.12
CCOc1c2ccccc2nc2cc(OCCCN3CCCC3)c(OC)cc12 [Entry 7, 9-ethoxy-2-methoxy-3-[3-(pyrrolidin-1-yl)propoxy]acridine formate]	5.85

Now those with a higher pIC50, led by results:

pIC50	Compound
7.55	CNc1c2ccccc2nc2cc(OCCCN(C)C)c(OC)cc12 [Entry 119, 3-[3-(dimethylamino)propoxy]-2-methoxy-N-methylacridin-9-amine trifluoroacetate]
7.70	COc1cc2c(NCC3COC3)c3c(nc2cc1OCCCN1CCCC1)CCC3 [Entry 39, 7-methoxy-N-[(oxetan-3-yl)methyl]-6-[3-(pyrrolidin-1-yl)propoxy]-1H,2H,3H-cyclopenta[b]quinolin-9-amine formate]
7.73	COc1cc2c(NC3CC(=O)N(C4CCC4)C3)c3ccccc3nc2cc1OCCCN1CCCC1 (centres unmarked) [Entry 87, 1-cyclobutyl-4-({2-methoxy-3-[3-(pyrrolidin-1-yl)propoxy]acridin-9-yl}amino)pyrrolidin-2-one trifluoroacetate]
7.77	COc1cc2c(NC3CCC(C)(O)CC3)c3ccccc3nc2cc1OCCCN1CCCC1 [Entry 99, (1R,4R)-4-({2-methoxy-3-[3-(pyrrolidin-1-yl)propoxy]acridin-9-yl}amino)-1-methylcyclohexan-1-ol trifluoroacetate]
7.77	COC(=O)N1CC(CNc2c3c(nc4cc(OCCCN5CCCC5)c(OC)cc24)CCC3)C1 [Entry 71, methyl 3-[({7-methoxy-6-[3-(pyrrolidin-1-yl)propoxy]-1H,2H,3H-cyclopenta[b]quinolin-9-yl}amino)methyl]azetidine-1-carboxylate formate]
7.80	COc1cc2c(NC3CC(OC)C3)c3c(nc2cc1OCCCN1CCCC1)CCC3 (centres unmarked) [Entry 56, 7-methoxy-N-(3-methoxycyclobutyl)-6-[3-(pyrrolidin-1-yl)propoxy]-1H,2H,3H-cyclopenta[b]quinolin-9-amine formate]
7.85	COc1cc2c(NCC3CC3)c3c(nc2cc1OCCCN1CCCC1)CCC3 [Entry 32, N-(cyclopropylmethyl)-7-methoxy-6-[3-(pyrrolidin-1-yl)propoxy]-1H,2H,3H-cyclopenta[b]quinolin-9-amine formate]
8.11	COc1cc2c(NC(C3CC3)C3CC3)c3c(nc2cc1OCCCN1CCCC1)CCC3 [Entry 65, N-(dicyclopropylmethyl)-7-methoxy-6-[3-(pyrrolidin-1-yl)propoxy]-1H,2H,3H-cyclopenta[b]quinolin-9-amine formate]
8.17	COc1cc2c(NCCC#N)c3ccccc3nc2cc1OCCCN1CCCC1 [Entry 98, 3-({2-methoxy-3-[3-(pyrrolidin-1-yl)propoxy]acridin-9-yl}amino)propanenitrile trifluoroacetate]
8.89	CNc1c2ccccc2nc2cc(OCCCN3CCCC3)c(OC)cc12 [Entry 1, 2-methoxy-N-methyl-3-[3-(pyrrolidin-1-yl)propoxy]acridin-9-amine]
8.96	COc1cc2c(NC3CCN(C)CC3)c3ccccc3nc2cc1OCCCN1CCCC1 [Entry 4, 2-methoxy-N-(1-methylpiperidin-4-yl)-3-[3-(pyrrolidin-1-yl)propoxy]acridin-9-amine trifluoroacetate]
